For orientation: viability, T/C means the result in the treated group divided by that in the control group, in per cent. One may read the IC50 as the midpoint of a concentration-inhibition curve.

This test concerns HSSY-II tumor spheroid viability. Briefly: Anticancer human tumor HSSY-II cell line growth inhibition.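 On all read-outs here: spheroids exposed to compounds for seven days before reading.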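 On viability, T/C: percent of DMSO vehicle control viability so 100% = untreated level.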 As to conditions: spheroids with HUVEC and MSC; for viability, T/C: stronger effect = lower value. A digest of the protocol:
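Complex spheroids of malignant cells with endothelial cells and mesenchymal stem cells; agents alone or combined, from near clinical Cmax (or 10 microM if unknown) down in half-log steps, 0.25% DMSO final.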

Setting [1] is: curve of first compound, second compound 0.003 µM.

Structures are written as SMILES. Several values for one entry are separate records, joined by “and”; a condition that tells them apart may be missing. Identical values can stand only once. A value given as a limit tells only on which side of the number the result lay.

Turning to `Cc1cc(C)c(CNC(=O)c2cc(-c3ccc(CN4CCOCC4)cc3)cc3c2cnn3C2CCCC2)c(=O)[nH]1`, the viability, T/C is, setting by setting: (compound 0.0316 µM) 109% and 94.6% and 92.3%; (compound 0.1 µM) 107% and 99.1% and 103%; (compound 0.316 µM) 107% and 106% and 102%; (compound 1 µM) 107% and 102% and 91.9%; (compound 3.16 µM) 104% and 95.3% and 96.5%; (compound 10 µM) 64.3% and 69.4% and 77.4%. In addition, the IC50 (curve of compound) was over 10 µM.
Take `[2H]c1nc(C)nc([2H])c1-c1cc(NC[C@@H](C)c2cccc3c(C(=O)NC)ccnc23)ncn1`: the viability, T/C (compound 0.0316 µM) is 95.9% and 98.9% and 105%; the viability, T/C (compound 0.1 µM) was 98.9% and 99.4% and 98.4%; the viability, T/C (compound 0.316 µM) was 95.8% and 98.1% and 101%; the viability, T/C (compound 1 µM) was 99.1% and 97.4% and 99.5%; the viability, T/C (compound 3.16 µM) was 99% and 92.2% and 97%; the viability, T/C (compound 10 µM) was 93.9% and 84.6% and 93%. Moreover, the IC50 (curve of compound) is over 10 µM.
Take `Cn1ncnc1[C@H]1c2n[nH]c(=O)c3cc(F)cc(c23)N[C@@H]1c1ccc(F)cc1` + COc1cc2c(cc1O)CCNC21CSC2c3c(OC(C)=O)c(C)c4c(c3C(COC1=O)N1C(O)C3Cc5cc(C)c(OC)c(O)c5C(C21)N3C)OCO4: the concentration for half-maximal inhibition (IC50) (curve of first compound, second compound 30 pM) is 0.0367 µM; the IC50 (curve of first compound, second compound 94.9 pM) was under 0.00949 µM; the IC50 (curve of first compound, second compound 0.0003 µM) was under 0.00949 µM; the half-inhibitory concentration (IC50) (curve of first compound, second compound 0.000949 µM) is under 0.00949 µM; the IC50 under setting [1] was under 0.00949 µM. Further, the viability, T/C is 65.3% (second compound 30 pM, first compound 0.00949 µM); 53.8% (second compound 30 pM, first compound 0.03 µM); 32% (second compound 30 pM, first compound 0.0949 µM); 14.4% (second compound 30 pM, first compound 0.3 µM); 9.09% (second compound 30 pM, first compound 0.949 µM); 6.64% (second compound 30 pM, first compound 3 µM). Further, the viability, T/C was 32.6% (second compound 94.9 pM, first compound 0.00949 µM); 25.6% (second compound 94.9 pM, first compound 0.03 µM); 15.6% (second compound 94.9 pM, first compound 0.0949 µM); 10.5% (second compound 94.9 pM, first compound 0.3 µM); 8.55% (second compound 94.9 pM, first compound 0.949 µM); 6.28% (second compound 94.9 pM, first compound 3 µM). The viability, T/C runs as follows: (second compound 0.0003 µM, first compound 0.00949 µM) 8.74%; (second compound 0.0003 µM, first compound 0.03 µM) 9.03%; (second compound 0.0003 µM, first compound 0.0949 µM) 8.23%; (second compound 0.0003 µM, first compound 0.3 µM) 7.73%; (second compound 0.0003 µM, first compound 0.949 µM) 6.35%; (second compound 0.0003 µM, first compound 3 µM) 3.6%. For the same compound, the viability, T/C is 2.25% (second compound 0.000949 µM, first compound 0.00949 µM); 1.71% (second compound 0.000949 µM, first compound 0.03 µM); 1.81% (second compound 0.000949 µM, first compound 0.0949 µM); 2.07% (second compound 0.000949 µM, first compound 0.3 µM); 0.53% (second compound 0.000949 µM, first compound 0.949 µM); 0.15% (second compound 0.000949 µM, first compound 3 µM). For the same compound, the viability, T/C was 0.2% (second compound 0.003 µM, first compound 0.00949 µM); 0.25% (second compound 0.003 µM, first compound 0.03 µM); 0.2% (second compound 0.003 µM, first compound 0.0949 µM); 0.15% (second compound 0.003 µM, first compound 0.3 µM); 0.14% (second compound 0.003 µM, first compound 0.949 µM); 0.26% (second compound 0.003 µM, first compound 3 µM).
For `COc1cc(C)[nH]c(=O)c1CN1CCc2c(Cl)cc(C(OC)C3COC3)c(Cl)c2C1=O` (stereo unspecified) + CC[C@@]1(O)C(=O)OCc2c1cc1n(c2=O)Cc2cc3c(CN(C)C)c(O)ccc3nc2-1, the 50% inhibitory concentration (IC50) under setting [1] was over 10 µM; the IC50 (curve of first compound, second compound 0.00949 µM) was 0.438 µM; the IC50 (curve of first compound, second compound 0.03 µM) was under 0.0316 µM; the IC50 (curve of first compound, second compound 0.0949 µM) is under 0.0316 µM; the half-maximal inhibitory concentration (IC50) (curve of first compound, second compound 0.3 µM) is under 0.0316 µM. In addition, the viability, T/C is, setting by setting: (second compound 0.003 µM, first compound 0.0316 µM) 85.5%; (second compound 0.003 µM, first compound 0.1 µM) 83.2%; (second compound 0.003 µM, first compound 0.316 µM) 69.1%; (second compound 0.003 µM, first compound 1 µM) 63%; (second compound 0.003 µM, first compound 3.16 µM) 63.7%; (second compound 0.003 µM, first compound 10 µM) 56.1%. For the same compound, the viability, T/C runs as follows: (second compound 0.00949 µM, first compound 0.0316 µM) 58.4%; (second compound 0.00949 µM, first compound 0.1 µM) 59.4%; (second compound 0.00949 µM, first compound 0.316 µM) 50.4%; (second compound 0.00949 µM, first compound 1 µM) 46%; (second compound 0.00949 µM, first compound 3.16 µM) 42.4%; (second compound 0.00949 µM, first compound 10 µM) 42.8%. Further, the viability, T/C was 13.6% (second compound 0.03 µM, first compound 0.0316 µM); 10.9% (second compound 0.03 µM, first compound 0.1 µM); 13.4% (second compound 0.03 µM, first compound 0.316 µM); 13.3% (second compound 0.03 µM, first compound 1 µM); 14.6% (second compound 0.03 µM, first compound 3.16 µM); 15.1% (second compound 0.03 µM, first compound 10 µM). Besides, the viability, T/C is 9.27% (second compound 0.0949 µM, first compound 0.0316 µM); 10.6% (second compound 0.0949 µM, first compound 0.1 µM); 9.37% (second compound 0.0949 µM, first compound 0.316 µM); 11% (second compound 0.0949 µM, first compound 1 µM); 11.4% (second compound 0.0949 µM, first compound 3.16 µM); 13.1% (second compound 0.0949 µM, first compound 10 µM). For the same compound, the viability, T/C runs as follows: (second compound 0.3 µM, first compound 0.0316 µM) 6.06%; (second compound 0.3 µM, first compound 0.1 µM) 6.42%; (second compound 0.3 µM, first compound 0.316 µM) 6.42%; (second compound 0.3 µM, first compound 1 µM) 7.59%; (second compound 0.3 µM, first compound 3.16 µM) 8.41%; (second compound 0.3 µM, first compound 10 µM) 8.2%.
With `CC(C)n1c(=O)n(C)c2cnc3cc(F)c(-c4ccc(OCCCN5CCCCC5)nc4)cc3c21`, the viability, T/C reads like this: (compound 0.0316 µM) 139% and 106% and 97.2%; (compound 0.1 µM) 129% and 102% and 101%; (compound 0.316 µM) 118% and 97.2% and 96.5%; (compound 1 µM) 126% and 86.8% and 85.9%; (compound 3.16 µM) 113% and 76.4% and 76.1%; (compound 10 µM) 53.6% and 35.9% and 32.6%. Under “curve of compound”, the IC50 was > 10 µM and 6.62 µM and 6.22 µM.

Values taken from PubChem BioAssay AID1845204 (Molecular Pharmacology Branch, DTP, NCI, 2023).
